Laboratory results: publication PMC1190152, “Archazolid and apicularen: Novel specific V-ATPase inhibitors” (BMC Biochemistry, 2005)
Read-outs that look alike come from different tables or passages of the source.

Experiments:
[1] = target: T1, F-ATPase (Mus musculus, UniProt P56480); experiment: Inhibition of F-ATPase activity in crude membranes from mouse heart; type: biochemical
T1 construct: we prepared mitochondria rich crude membranes from mouse heart; from tissue; host or cells: mouse heart, crude membrane extract
Method: (§1) The V-ATPase holoenzyme was purified as published elsewhere. Preparation of highly purified membranes containing Na^+/K^+-ATPase from pig kidney followed the protocol of Jørgensen with the three main steps of differential centrifugation, incubation with SDS in the presence of ATP and sucrose density gradient centrifugation in a fixed angle rotor, and led to a specific enzyme activity which was in the same range as that reported by the authors. The resulting sample was stored frozen at -20°C. To prepare crude membrane extracts, the hearts of three mice were washed three times with an ice-cold buffer of pH 8.1 consisting of 0.25 M sucrose, 5 mM Tris-HCl, 5 mM EDTA, and 10 mM Pefabloc SC (Biomol), homogenized in 5 ml of this buffer and centrifuged at 4°C for 25 min at 233,000 × gmax in a fixed angle rotor. The resulting pellet was resuspended in 5 ml of a buffer of pH 7.5, consisting of 5 mM Tris-MOPS (3-morpholinopropanesulfonic acid), 10 mM NaCl, 10 mM Pefabloc SC, 9.6 mM 2-mercaptoethanol, 0.53 mM EGTA and 0.1 % Triton X-100. After an aliquot for protein determination had been taken, 10% bovine serum albumin (final concentration) was added to the suspension which was then stored on ice until the activity assays were run. Beef heart mitochondria were isolated by differential centrifugation, following the protocol of Smith by using a blender to homogenize the heart mince. The initial homogenization buffer consisted of 250 mM saccharose, 10 mM KH2PO4, 10 mM Tris, 2 mM EGTA, 2 mM MgCl2, pH 7.4, and further isolation procedures were carried out in the same medium without EGTA [24]. Submitochondrial particles were obtained by ultrasonic treatment of the mitochondria.
(§2) Standard V-ATPase assays with a final volume of 160 μl and a pH of 8.1 consisted of 3–4 μg of protein, 50 mM Tris-MOPS, 3 mM 2-mercaptoethanol, 1 mM MgCl2, 20 mM KCl, 0.003% C12E10, 20 mM NaCl, and 3 mM Tris-HCl. After 5 min of pre-incubation at 30°C with or without inhibitors, 1 mM Tris-ATP was added and after incubation for 2 min the reaction was stopped by placing the tube in liquid nitrogen. Assays using Na^+/K^+-ATPase were performed in 160 μl at pH 7.5 and contained 0.5 μg of protein, 50 mM Tris-MOPS, 5 mM imidazole, 0.2 mM EDTA, 4 mM MgCl2, 20 mM KCl and 100 mM NaCl. After 5 min of pre-incubation at 37°C with or without inhibitors, 3 mM Tris-ATP was added and after 1 min of incubation the reaction was stopped by placing the tube in liquid nitrogen. […] After 5 min of pre-incubation at 30°C with or without inhibitors, 1 mM Tris-ATP was added and after an incubation time of 10 min the reaction was stopped by placing the tubes in liquid nitrogen. ATPase assays with submitochondrial particles from beef heart were performed in a final volume of 1 ml and a pH of 8.0. The samples contained 9–12 μg protein, 50 mM Tris, 50 mM KCl and 2.5 mM MgCl2. After 5 min of preincubation with or without inhibitors, 5 mM ATP was added, and after an additional incubation time of 15 min the reaction was stopped by the addition of 0.4 ml of 20 % TCA.
(§3) Inorganic phosphate produced in the assays of V-ATPase, Na^+/K^+-ATPase and mouse heart F-ATPase was measured according the protocol of Wieczorek et al., while the determination of inorganic phosphate produced in the assays of beef heart F-ATPase followed the method of Fiske and Subarrow using ascorbic acid as reducing agent.

[2] = target: T2, F-ATPase (Bos taurus, UniProt P00829); experiment: Inhibition of F-ATPase activity in submitochondrial particles from beef heart; type: biochemical
T2 construct: Submitochondrial particles were obtained by ultrasonic treatment of the mitochondria; from tissue; host or cells: beef heart mitochondria, submitochondrial particles
Method: as §1, §2, §3

[3] = system: 3Y1; experiment: Growth inhibition of 3Y1 cells (MTT assay); type: cell-based, rat; conditions: read-out: IC50 growth inhibition
Method: (§4) Cell lines were obtained from the German Collection of Microorganisms and Cell Cultures (DSMZ). Cell lines 3Y1 and M1 (embryonal fibroblasts from 129/Ola × C57BL/6 mice, [30]) were a generous gift from Dr. S. Miyamoto, Fukoka, Japan, and Dr. P. F. Mühlradt, Braunschweig, Germany. All cell lines were cultivated under conditions recommended by the supplier. Growth inhibition was measured in microtiterplates. Aliquots of 120 μl of the suspended cells (50,000/ml) were given to 60 μl of a serial dilution of the inhibitor. After 5 days, growth was determined using the MTT assay.

[4] = system: M1; experiment: Growth inhibition of M1 cells (MTT assay); type: cell-based, mouse; conditions: 120 h, read-out: IC50 growth inhibition
Method: as §4

[5] = system: A-594; experiment: Growth inhibition of A-594 cells (MTT assay); type: cell-based, human; conditions: 120 h, read-out: IC50 growth inhibition
Method: as §4

[6] = system: L-929; set-up: method as in PMID 12931860; conditions: L-929, murine connective tissue; ref [17]; read-out: IC50 growth inhibition; cited from earlier work
[7] = target: T3, V-ATPase holoenzyme from the midgut of the tobacco hornworm (Manduca sexta, UniProt P31403); experiment: Inhibition of purified V-ATPase holoenzyme activity; type: biochemical
T3 construct: purified V-ATPase holoenzyme from the midgut of the tobacco hornworm; from tissue; host or cells: midgut of fifth instar Manduca sexta larvae
Method: as §1, §2, §3
Fifth instar larvae of M. sexta (Lepidoptera, Sphingidae), weighing 6–8 g, were reared under long day conditions (16 h of light) at 27°C using a synthetic diet modified according to Bell et al.

[8] = system: KB-V1; experiment: Growth inhibition of multidrug-resistant KB-V1 cells (MTT assay), with or without verapamil; type: cell-based; conditions: 120 h; KB-V1, mdr human cervix carcinoma; without verapamil; MTT after 5 days
Method: The novel antibiotics archazolids and apicularens (Fig. 1) were checked for their impact on the cell growth of a variety of mammalian cell lines from different tissues (Tab. 1). […] Apicularen B was the only exception, with an average IC50 value two orders of magnitude higher. Growth inhibition of the multidrug-resistant cell line KB-V1 was also measured in the presence of verapamil. […] The data in Tab 1. show, that unlike the archazolids, the apicularens are poor substrates of Pgp. To visualize the impact of the antibiotics, PtK2 (potoroo kidney) cells were incubated with the inhibitors and stained for intact acidic lysosomes (Fig. 2). […] The same observation was made with KB-3-1 cells (data not shown). […] Unlike the cell lines listed in Tab. 1, the growth of PtK2 cells was not completely stopped. The same holds true for A-498 cells (human kidney carcinoma). Both cell lines grow epithelial-like. There was obviously a differential reaction of cell lines to V-ATPase inhibitors. For A-431 cells (human epidermoid carcinoma) a dependence on the expression of the EGF receptor was shown.
as §4

[9] = system: bacterial growth; conditions: ref [11],[15],[17]; cited from earlier work
[10] = target: T4, Na+/K+-ATPase (Sus scrofa, UniProt P05024); experiment: Inhibition of Na+/K+-ATPase from pig kidney; type: biochemical
T4 construct: highly purified, Na^+/K^+-ATPase containing plasma membranes from pig kidney; from tissue; host or cells: pig kidney, purified plasma membranes
Method: as §1, §2, §3

[11] = target: T3, V-ATPase holoenzyme from the midgut of the tobacco hornworm; set-up: method as in PMID 12186879; conditions: ref [10], cited from earlier work
[12] = target: T5, Vo subunit c (Manduca sexta, UniProt P31403); set-up: method as in PMID 12186879; conditions: previous study; ref [10]; cited from earlier work
T5 construct: from tissue; host or cells: midgut of Manduca sexta larvae (purified V-ATPase)

[13] = system: PtK2 cells; experiment: Inhibition of lysosomal acidification (LysoTracker staining); type: cell-based, potoroo; conditions: 4 hours with inhibitor
Method: PtK2 (ATCC CCL-56) or KB-3-1 cells were grown on glass coverslips (13 mm diameter) in four-well-plates. Exponentially growing cells were incubated with the inhibitors for 4 hours and stained for lysosomes with 50 nM LysoTracker Red DND-99 and for mitochondria with 75 nM MitoTracker Green FM (both from Molecular Probes) at 37°C for 30 min. The nuclei were stained using Hoechst 33258 (5 μg/ml). The coverslips were mounted upside down in PBS, fixed with nail polish, and observed under the fluorescent microscope.

[14] = mouse heart crude membranes, specific F-ATPase inhibitors
[15] = beef heart submitochondrial particles, specific F-ATPase inhibitors
[16] = mouse heart crude membranes, inhibitor 1 μM
[17] = beef heart submitochondrial particles, inhibitor 1 μM
[18] = experiment 1, inhibitor 0.1 mM, control 19.0
[19] = experiment 1, inhibitor 1 mM, control 19.0
[20] = experiment 2, inhibitor 1 mM, control 15.9
[21] = read-out: ATPase activity reduced to (remaining activity)

T3 sequence (P31403 whole entry): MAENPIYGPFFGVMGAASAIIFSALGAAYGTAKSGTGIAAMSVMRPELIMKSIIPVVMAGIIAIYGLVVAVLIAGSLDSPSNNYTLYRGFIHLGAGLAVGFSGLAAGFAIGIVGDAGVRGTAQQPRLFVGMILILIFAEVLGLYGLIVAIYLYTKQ
T5 sequence (P31403 whole entry): as above

Compound: CC[C@H]1/C=C/C=C/C[C@@H](C)[C@H](O)[C@@](C)(O)C(=O)[C@@H](C)[C@H](O)[C@@H](C)C(=O)[C@@H](C)[C@H](O)[C@@H](C)/C=C/C(=O)O[C@@H]2[C@H](C)[C@H](CC1)O[C@]1(CC[C@H](C)[C@H](C[C@@H](C)O)O1)[C@H]2C [oligomycin, reference compound]
- ATPase activity reduced to (remaining activity) [1, 14]: around 25%
- ATPase activity reduced to (remaining activity) [2, 15]: around 25%

Compound: [N-]=[N+]=[N-] [azide, reference compound]
- ATPase activity reduced to (remaining activity) [1, 14]: around 25%
- ATPase activity reduced to (remaining activity) [2, 15]: around 25%

Compound: CNC(=O)O[C@@H](CC(C)C)c1nc([C@H]2OC(=O)/C=C/C/C(C)=C/[C@@H](O)[C@@H](C)\C=C(C)/C=C(C)\C=C\[C@@H](O)[C@H](C)[C@H](OC)/C(C)=C/C=C/[C@@H]2C)cs1 [archazolid B]
- IC50 ([3]; Rattus norvegicus, 3Y1, 120 h): 1.1 nM
- IC50 ([4]; Mus musculus, Fibroblast): 0.35 nM
- IC50 ([5]; Homo sapiens): 0.69 nM
- IC50 [6]: 1.1 nM
- IC50 [7]: ~20 nM
- IC50 per mg of protein, purified V-ATPase ([7]; equivalent of the half-maximal concentration): ca. 0.8 nmol per mg of protein
- IC50 [8]: 35 nM
- inhibition of bacterial growth [9]: failed to inhibit

Compound: CO/C1=C\C(C)=C\[C@@H](C)[C@@H](O)[C@@H](C)C/C(C)=C/C=C/[C@H](OC)[C@@H]([C@@H](C)[C@@H](O)[C@H](C)[C@@]2(O)C[C@@H](O)[C@H](C)[C@@H](C(C)C)O2)OC1=O [bafilomycin, reference compound]
- ATPase activity reduced to (remaining activity) [1, 16]: approximately 80%
- ATPase activity reduced to (remaining activity) [2, 17]: approximately 80%

Compound: C[C@@H]1O[C@@H](O[C@H]2C[C@@H](O)[C@]3(CO)[C@H]4[C@H](O)C[C@]5(C)[C@@H](C6=CC(=O)OC6)CC[C@]5(O)[C@@H]4CC[C@]3(O)C2)[C@H](O)[C@H](O)[C@H]1O [ouabain]
- specific activity of Na+/K+-ATPase [10, 18]: 5.2 µmol/mg/min
- specific activity of Na+/K+-ATPase [10, 19]: 0 µmol/mg/min
- specific activity of Na+/K+-ATPase [10, 20]: 0 µmol/mg/min
- effect on Na+/K+-ATPase activity ([10]; inhibitor 1 mM): completely inhibited

Compound: CO/C1=C\C(C)=C\[C@@H](C)[C@@H](O)[C@@H](C)C/C(C)=C/C=C/[C@H](OC)[C@@H]([C@@H](C)[C@@H](O)[C@H](C)[C@@]2(O)C[C@@H](OC(=O)/C=C/C(=O)NC3=C(O)CCC3=O)[C@H](C)[C@@H](C(C)C)O2)OC1=O [bafilomycin B1]
- IC50 per mg of protein, purified V-ATPase [11]: ca. 0.5 nmol per mg of protein
- IC50 ([11]; read-out: half-maximal inhibition concentration of purified V-ATPase): ~10 nM
- labelling of / binding to subunit c [12]: prevented

Compound: apicularen
- ATPase activity reduced to (remaining activity) [1, 16]: approximately 80%
- effect of increased inhibitor concentration on F-ATPase activity ([1]; mouse heart crude membranes, inhibitor 10 μM): no substantial effect
- ATPase activity reduced to (remaining activity) [2, 17]: approximately 80%
- effect of increased inhibitor concentration on F-ATPase activity ([2]; beef heart submitochondrial particles, inhibitor 10 μM): no substantial effect

Compound: [O]=[V]([O-])([O-])[O-] [vanadate]
- specific activity of Na+/K+-ATPase [10, 18]: 2.0 µmol/mg/min
- specific activity of Na+/K+-ATPase [10, 19]: 0 µmol/mg/min
- specific activity of Na+/K+-ATPase [10, 20]: 0 µmol/mg/min
- effect on Na+/K+-ATPase activity ([10]; inhibitor 1 mM): completely inhibited

Compound: CO/C1=C\C(C)=C\[C@@H](C)[C@@H](O)[C@@H](C)C/C(C)=C/C=C/[C@H](OC)[C@@H]([C@@H](C)[C@@H](O)[C@H](C)[C@@]2(O)C[C@@H](O)[C@H](C)[C@@H](C(C)C)O2)OC1=O [bafilomycin A1, reference compound]
- IC50 ([3]; 120 h, 3Y1, rat embryogenic fibroblast cell line, MTT after 5 days): 5.6 nM
- IC50 ([4]; M1, mouse embryogenic fibroblast cell line, MTT after 5 days): 2.6 nM
- IC50 ([5]; A-594, human lung carcinoma, MTT after 5 days): 0.4 nM
- IC50 [6]: 3.2 nM
- red LysoTracker staining indicating acidic lysosomes [13]: disappeared
- IC50 [8]: 7.2 nM
- labelling of / binding to subunit c [12]: prevented

Compound: C/C=C/[C@H]1O[C@@](O)([C@@H](C)[C@H](O)[C@H](C)[C@H]2OC(=O)/C(OC)=C/C(C)=C/[C@@H](C)[C@@H](O)[C@@H](CC)[C@@H](O)[C@H](C)C/C(C)=C/C=C/[C@@H]2OC)C[C@@H](O)[C@@H]1C [concanamycin, reference compound]
- remaining activity at 1 µM [1, 21]: ~80%
- remaining activity at 1 µM [2, 21]: ~80%
